± gives the standard deviation of the averaged measurements.
Assay: TIMS collisional cross section (CCS, N2) of the lipid ion; higher = larger ion cross section
Details: ionization mode: positive, one isomer drawn

SMILES	TIMS collisional cross section (sample type: HeLa)	TIMS collisional cross section (sample type: Liver)	TIMS collisional cross section (sample type: plasma)
CCCC/C=C\CCCCCCCC(=O)OC[C@H](COC(=O)CCCCCCC/C=C\CCCCCC)OC(=O)CCCCCCC/C=C\CCCCC [TG 14:1_15:1_16:1] (ion (formula + adduct): [C48H86O6+NH4] 1+)	298.2 Å²	296 Å²	
CCCC/C=C\CCCCCCCC(=O)OC[C@H](COC(=O)CCCCCCC/C=C\CCCCCC)OC(=O)CCCCCCCCCCCCCCC [TG 14:1_16:0_16:1] (ion (formula + adduct): [C49H90O6+NH4] 1+)	303.9 ± 0.85 Å²	302.9 Å²	303.9 ± 0.28 Å²
CCCC/C=C\CCCCCCCC(=O)OC[C@H](COC(=O)CCCCCCC/C=C\CCCCCC)OC(=O)CCCCCCC/C=C\CCCCCC [TG 14:1_16:1_16:1] (ion (formula + adduct): [C49H88O6+NH4] 1+)	301.5 Å²	301.9 Å²	
CCCC/C=C\CCCCCCCC(=O)OC[C@H](COC(=O)CCCCCCC/C=C\CCCCCCC)OC(=O)CCCCCCC/C=C\CCCCCC [TG 14:1_16:1_17:1] (ion (formula + adduct): [C50H90O6+NH4] 1+)		305.4 Å²	
CCCC/C=C\CCCCCCCC(=O)OC[C@H](COC(=O)CCCCCCCCCCCCCCCCC)OC(=O)CCCCCCC/C=C\CCCCCC [TG 14:1_16:1_18:0] (ion (formula + adduct): [C51H94O6+NH4] 1+)	309.6 Å²		
CCCC/C=C\CCCCCCCC(=O)OC[C@H](COC(=O)CCCCCCC/C=C\CCCCCCCC)OC(=O)CCCCCCC/C=C\CCCCCC [TG 14:1_16:1_18:1] (ion (formula + adduct): [C51H92O6+NH4] 1+)	307.85 ± 1.2 Å²	307.7 Å²	307 Å²
CCCC/C=C\CCCCCCCC(=O)OC[C@H](COC(=O)CCCCCCC/C=C\C/C=C\CCCCC)OC(=O)CCCCCCC/C=C\CCCCCC [TG 14:1_16:1_18:2] (ion (formula + adduct): [C51H90O6+NH4] 1+)	306.1 Å²	304.7 Å²	304.5 Å²
CCCC/C=C\CCCCCCCC(=O)OC[C@H](COC(=O)CCCCCCC/C=C\C/C=C\CCCCC)OC(=O)CCCCCCC/C=C\CCCCCCC [TG 14:1_17:1_18:2] (ion (formula + adduct): [C52H92O6+NH4] 1+)			308.6 Å²
CCCCCCCCCCCCCCCC(=O)OC[C@@H](COC(=O)CCCCCCCCCCCCCC)OC(=O)CCCCCCCCCCCCCC [TG 15:0_15:0_16:0] (ion (formula + adduct): [C49H94O6+NH4] 1+)	308 Å²		
CCCCCC/C=C\CCCCCCCC(=O)OC[C@@H](COC(=O)CCCCCCCCCCCCCC)OC(=O)CCCCCCCCCCCCCC [TG 15:0_15:0_16:1] (ion (formula + adduct): [C49H92O6+NH4] 1+)	305.9 Å²		
CCCCC/C=C\CCCCCCCC(=O)O[C@H](COC(=O)CCCCCCCCCCCCCC)COC(=O)CCCCCCCCCCCCCCC [TG 15:0_15:1_16:0] (ion (formula + adduct): [C49H92O6+NH4] 1+)		305.9 Å²	
CCCCCCCCCCCCCCCC(=O)OC[C@@H](COC(=O)CCCCCCCCCCCCCC)OC(=O)CCCCCCCCCCCCCCC [TG 15:0_16:0_16:0] (ion (formula + adduct): [C50H96O6+NH4] 1+)	311.5 Å²		311.3 ± 0.14 Å²
CCCCCC/C=C\CCCCCCCC(=O)OC[C@@H](COC(=O)CCCCCCCCCCCCCC)OC(=O)CCCCCCCCCCCCCCC [TG 15:0_16:0_16:1] (ion (formula + adduct): [C50H94O6+NH4] 1+)		309.02 ± 0.29 Å²	309.2 Å²

— the supplement of paper PMC6965134
